This is an account of results in US8658226B2, “Agent having anti-Helicobacter pylori activity” (Japan Royal Jelly Co., Ltd., priority 2008, dated 2014).

The subject of the test is Helicobacter pylori. Description: Measurement of anti-Helicobacter pylori activity by the paper disk method. In kind it is cell-based. The method, then:
Measurement of anti-Helicobacter pylori activity was carried out by the paper disk method using Helicobacter pylori agar culture medium (Pore […] Chemical). After coating Helicobacter pylori over the entire surface of this medium, a thick circular piece of filter paper (Advantec) having a diameter of 8 mm impermeated with 60 μl of extract was placed on the medium followed by culturing in the presence of 10% carbon dioxide gas. After culturing for 3 to 4 days, the size of the zone of inhibition of Helicobacter pylori growth formed around the filter paper was observed. A piece of filter paper impermeated with chloramphenicol (CM, 100 μg/ml) was also placed on the medium as a positive control, while a piece of filter paper impermeated with PBS was placed on the medium as a negative control.

In brackets after ≈: the same amount, converted by molar mass.

Consider `O=C(N[C@H](CO)[C@H](O)c1ccc([N+](=O)[O-])cc1)C(Cl)Cl` [chloramphenicol], for which, for the setting “Helicobacter pylori, assumed from paper disk method, read-out: minimum inhibitory concentration (MIC)”, the MIC was around 5 µg/mL (≈ 15.5 µM). Moreover, under “at a concentration of 5 μg/ml”, the “antibacterial activity of chloramphenicol” value is recorded as “essentially no longer observed”.
